Target: T1, D2 receptors (Homo sapiens, UniProt P14416)
T1 construct: expressed in transfected cells
Assay: GTPS scintillation proximity assay (GTPS-SPA), CHO_D2 cell membranes
Assay type: biochemical
Conditions: up to the highest concentration tested in the assay (3 μM)
Description: Functional potency of compounds of this invention can be measured by the following GTPS scintillation proximity assay (GTPS-SPA). Cells used in the study are Chinese Hamster Ovary (CHO) Cells.
All steps are performed at 4° C. Cell membranes are prepared as follows. Cell pellets are resuspended in 10 volumes of 50 mM HEPES, 1 mM EDTA pH 7.4, using KOH.
Cells are homogenised within a glass waring blender for 2 bursts of 15 secs in 200 mls of buffer (50 mM HEPES, 1 mM leupeptin, 25 μg/ml bacitracin, 1 mM EDTA, 1 mM PMSF, 2 μM Pepstatin A). (the latter 2 reagents added as fresh ×100 and ×500 stocks respectively in ethanol). […]
The final top concentration of test drug is 3 μM in the assay and 11 points serial dilution curves 1:4 in 100% DMSO are carried out using a Biomek FX. […] The final assay cocktail (45.5 μl) is incubated at room temperature to equilibrate for 3-6 hours before reading on a ViewLux™ (613/55 filter) luminescence imager 5 min/plate.
The effect of the test drug over the basal generates fpKi values of test drug are calculated from the IC50 generated by “antagonist format” experiment, using Cheng & Prusoff equation: fKi=IC50/1+([A]/EC50) where: [A] is the concentration of the agonist Quinelorane in the assay and EC50 is the Quinelorane EC50 value obtained in the same experiment. fpKi is defined as −log fKi. […]

T1 sequence (P14416 whole entry): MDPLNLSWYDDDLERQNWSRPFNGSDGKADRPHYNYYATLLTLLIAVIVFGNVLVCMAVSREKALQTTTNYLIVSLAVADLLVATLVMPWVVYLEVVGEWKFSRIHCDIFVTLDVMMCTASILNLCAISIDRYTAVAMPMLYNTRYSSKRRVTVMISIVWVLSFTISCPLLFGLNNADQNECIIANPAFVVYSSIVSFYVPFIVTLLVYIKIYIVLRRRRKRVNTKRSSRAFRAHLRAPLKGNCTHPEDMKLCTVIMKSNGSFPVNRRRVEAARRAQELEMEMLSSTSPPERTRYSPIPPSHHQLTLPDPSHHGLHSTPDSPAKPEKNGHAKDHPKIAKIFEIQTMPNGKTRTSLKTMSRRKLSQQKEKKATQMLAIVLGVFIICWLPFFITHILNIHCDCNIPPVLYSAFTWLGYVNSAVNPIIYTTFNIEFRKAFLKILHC

COc1cccn(CCCCN2C[C@@H]3C[C@]3(c3ccc(C(F)(F)F)cc3)C2)c1=O.Cl [Example E8, 3-(methyloxy)-1-(4-{(1S,5R)-1-[4-(trifluoromethyl)phenyl]-3-azabicyclo[3.1.0]hex-3-yl}butyl)-2(1H)-pyridinone hydrochloride]
activity in the D2 GTPS-SPA assay: no activity

Cl.N#Cc1cccn(CCCCN2C[C@@H]3C[C@]3(c3ccc(C(F)(F)F)cc3)C2)c1=O [Example E9, 2-oxo-1-(4-{(1S,5R)-1-[4-(trifluoromethyl)phenyl]-3-azabicyclo[3.1.0]hex-3-yl}butyl)-1,2-dihydro-3-pyridinecarbonitrile hydrochloride]
activity in the D2 GTPS-SPA assay: no activity

— patent US8163927B2, “Azabicyclo [3.1.0] hexane derivatives as modulators of dopamine D3 receptors” (Glaxo Group Limited, priority 2006, dated 2012)
